Data from patent publication US5438046A, “N-heteroaryl substituted derivatives of propanamide useful in the treatment of cardiovascular diseases” (Zambon Group S.p.A., priority 1993, dated 1995).

Target: T1, endothelin converting enzyme (ECE) (Oryctolagus cuniculus, UniProt A0A5F9CTJ8)
T1 construct: The left saphenous artery was removed and cleaned of the surrounding tissue, cut into 2-3 mm length rings; from tissue; host or cells: left saphenous artery rings of male New Zealand rabbits
T1 sequence (A0A5F9CTJ8 1-783): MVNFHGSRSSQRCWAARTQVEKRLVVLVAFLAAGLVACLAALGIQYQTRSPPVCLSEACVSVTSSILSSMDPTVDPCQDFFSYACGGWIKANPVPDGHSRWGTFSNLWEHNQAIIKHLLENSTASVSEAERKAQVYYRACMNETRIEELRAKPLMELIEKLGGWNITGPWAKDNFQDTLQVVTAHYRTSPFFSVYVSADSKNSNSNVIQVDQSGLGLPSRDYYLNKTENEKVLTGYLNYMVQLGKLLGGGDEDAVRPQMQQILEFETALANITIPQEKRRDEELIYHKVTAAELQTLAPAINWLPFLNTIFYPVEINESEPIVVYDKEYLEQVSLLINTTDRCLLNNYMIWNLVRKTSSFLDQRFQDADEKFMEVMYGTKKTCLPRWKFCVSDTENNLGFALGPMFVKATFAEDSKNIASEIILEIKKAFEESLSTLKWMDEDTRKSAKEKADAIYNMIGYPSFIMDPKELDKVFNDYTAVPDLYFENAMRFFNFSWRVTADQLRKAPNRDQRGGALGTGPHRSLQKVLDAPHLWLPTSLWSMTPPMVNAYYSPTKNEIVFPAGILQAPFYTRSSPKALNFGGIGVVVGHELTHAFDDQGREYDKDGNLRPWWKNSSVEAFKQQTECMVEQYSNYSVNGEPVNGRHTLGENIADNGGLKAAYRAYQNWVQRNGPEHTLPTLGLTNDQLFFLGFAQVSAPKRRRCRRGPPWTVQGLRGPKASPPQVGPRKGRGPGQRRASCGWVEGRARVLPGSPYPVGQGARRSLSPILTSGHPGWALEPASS
Experiment: In vitro ECE-inhibitory activity (inhibition of Big endothelin response in rabbit left saphenous artery rings)
Format: cell-based, New Zealand rabbits
Details: human Big endothelin 3×10^-8 M, compound contact 30 minutes
Protocol: Male New Zealand rabbits (2.5-3 Kg) were sacrificed with an excess of pentobarbital and blood was drawn. […] This solution was composed of (mM); NaCl, 118; KCl, 4.7; CaCl2, 2.5; KH2 PO4, 1.2; MgSO4, 1.2; NaHCO3, […]; glucose, 11. The preparations were kept under tension and readjusted to 1 g during the equilibration period (1 hour).
After said period, the preparations were exposed to a submaximal concentration of norepinephrine 1 μM which was repeated every 30 minutes until the response was stable. A concentration of acetylcholine 10 μM on the contraction of norepinephrine verified the presence of the endothelium.
After 30 minutes from the last contraction due to norepinephrine, a concentration of human Big endothelin 3×10^-8 M was administered. […] The percentage of ECE-inhibition was expressed as IC50 value (nM).

CC(C)C[C@H](NP(=O)(O)O[C@@H]1O[C@@H](C)[C@H](O)[C@@H](O)[C@H]1O)C(=O)N[C@@H](Cc1c[nH]c2ccccc12)C(=O)O [Phosphoramidon, N-[N-[[(6-deoxy-α-L-mannopyranosyl)oxy]hydroxyphos-phinyl]-l-leucyl]-L-tryptophan]
IC50: 50 nM
